As usually defined, the melting point is the temperature, or range, at which the solid turns liquid. With `CN(C)CC#C[C@H]1CC[C@H](N(C)c2ncc(Br)cn2)CC1` [Example 2, trans-(5-Bromo-pyrimidin-2-yl)-[4-(3-dimethylamino-prop-1-ynyl)-cyclohexyl]-methyl-amine], the melting point was 83 to 84 °C (dec.).
In the case of `CCCc1cnc(N(C)C[C@H]2CC[C@H](C#CCN(C)C)CC2)nc1` [Example 23.1, trans-[4-(3-Dimethylamino-prop-1-ynyl)-cyclohexylmethyl]-methyl-(5-propyl-pyrimidin-2-yl)-amine] it was 49 to 50 °C; in that of `CN(C)C[C@H]1CC[C@H](CCNc2ncc(Br)cn2)CC1` [Example 12, trans-(5-Bromo-pyrimidin-2-yl)-[2-(4-dimethylaminomethyl-cyclohexyl)-ethyl]-amine], 108.3 to 109.5 °C; in that of `CN(C)CC#C[C@H]1CC[C@H](CN(C)c2ncc(Br)cn2)CC1` [Example 16, trans-(5-Bromo-pyrimidin-2-yl)-[4-(3-dimethylamino-prop-1-ynyl)-cyclohexylmethyl]-methyl-amine], 71 to 72 °C.

These data come from patent publication US7012077B2, “Substituted cyclohexane derivatives” (Hoffmann-La Roche Inc., priority 2001, dated 2006).
